Read-outs that look alike come from different tables or passages of the source.

Assay [1] addresses T1, jack bean urease (Canavalia ensiformis, UniProt P07374). The experiment in a line: Urease inhibition assay. In kind it is biochemical. The conditions noted are these: for % inhibition: value in parentheses after IC50, concentration not given.
In assay [2] the target is T1, jack bean urease. The experiment in a line: Enzyme kinetic studies. It counts as biochemical. As to conditions: for Mode of inhibition: Lineweaver–Burk plots.
[3] abbreviates: at 20 μM concentration of the inhibitor.

T1 sequence (P07374 whole entry, looked up): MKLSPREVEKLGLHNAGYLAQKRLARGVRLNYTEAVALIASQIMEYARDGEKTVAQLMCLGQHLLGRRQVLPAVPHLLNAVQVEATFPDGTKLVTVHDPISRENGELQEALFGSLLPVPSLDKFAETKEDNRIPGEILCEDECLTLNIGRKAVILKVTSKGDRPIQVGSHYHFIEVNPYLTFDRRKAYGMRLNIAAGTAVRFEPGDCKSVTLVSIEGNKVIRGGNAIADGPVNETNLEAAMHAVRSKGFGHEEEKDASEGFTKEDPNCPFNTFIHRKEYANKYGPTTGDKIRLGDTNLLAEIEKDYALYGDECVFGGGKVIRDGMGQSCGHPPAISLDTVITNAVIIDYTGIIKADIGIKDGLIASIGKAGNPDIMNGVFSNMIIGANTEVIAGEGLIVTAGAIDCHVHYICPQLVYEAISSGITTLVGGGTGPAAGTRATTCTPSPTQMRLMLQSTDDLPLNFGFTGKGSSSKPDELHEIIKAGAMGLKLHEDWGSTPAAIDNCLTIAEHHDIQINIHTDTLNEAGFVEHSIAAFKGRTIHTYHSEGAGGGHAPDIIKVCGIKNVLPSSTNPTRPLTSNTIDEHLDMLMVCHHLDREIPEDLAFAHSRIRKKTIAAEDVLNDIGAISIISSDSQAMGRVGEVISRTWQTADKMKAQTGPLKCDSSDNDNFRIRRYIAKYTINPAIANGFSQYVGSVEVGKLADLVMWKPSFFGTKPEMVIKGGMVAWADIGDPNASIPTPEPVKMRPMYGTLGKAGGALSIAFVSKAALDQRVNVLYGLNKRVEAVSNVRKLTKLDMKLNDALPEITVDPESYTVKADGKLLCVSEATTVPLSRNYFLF

As a reminder, the IC50 is the concentration needed to halve the response being measured. A higher IC50 goes with a need for much substance. In general, % inhibition refers to the change of the read-out against control, counted positive when it falls. Turning to `CCCCCCCCCCCC(=O)NC(=S)Nc1ccc(Cl)c(Cl)c1` [Compound 3p, N-(3′,4′-Dichlorophenylcarbamothioyl) dodecanamide], on jack bean urease [1], half-maximal inhibition (IC50) was put at 20.2 ± 0.48 µM and the “% inhibition” value amounted to 85.2%.

For the compound `CCCCCCCC(=O)NC(=S)Nc1ccc(C)c(C)c1` [Compound 3f, N-(3′,4′-Dimethylphenylcarbamothioyl) octanamide], on jack bean urease [1], the IC50 was 40.2 ± 0.45 µM and the “% inhibition” value was 76.2%.

For `CCCCCCCC(=O)NC(=S)Nc1cc([N+](=O)[O-])ccc1OC` [Compound 3h, N-(2′-Methoxy-5′-nitrophenylcarbamothioyl) octanamide], at jack bean urease [1], the IC50 amounted to 30.6 ± 0.75 µM and the “% inhibition” value is 88.1%.

In general, Ki refers to the dissociation constant of the complex between target and ligand, obtained from inhibition or displacement. Take `CCCCCCCC(=O)NC(=S)Nc1c(C)cccc1C` [Compound 3g, N-(2′,6′-Dimethylphenylcarbamothioyl) octanamide]: at jack bean urease [2], the Ki worked out at 9.28 µM and the Mode of inhibition result was “Competitive”. Moreover, on jack bean urease [2] (setting [3]), the “K m(app)” value is recorded as 6.09 mM and the “V max(app)” value is 15.63 µM/min. Also, at jack bean urease [1], the IC50 amounted to 15.2 ± 0.58 µM and the “% inhibition” value was 96.3%.

In the case of `CCCCCCCC(=O)NC(=S)Nc1c(Cl)cccc1Cl` [Compound 3i, N-(2′,6′-Dichlorophenylcarbamothioyl) octanamide], on jack bean urease [1], the IC50 worked out at 22 ± 0.45 µM and the “% inhibition” value came to 91.4%.

As to `CCCCCCCC(=O)NC(=S)Nc1cc(C)ccc1C` [Compound 3d, N-(2′,5′-Dimethylphenylcarbamothioyl) octanamide], on jack bean urease [1], the IC50 came out at 60.1 ± 0.78 µM and the “% inhibition” value was found to be 61.3%.

As for `CCCCCCCC(=O)NC(=S)Nc1ccc(C(F)(F)F)cc1` [Compound 3m, N-(4′-(Trifluoromethyl)phenylcarbamothioyl) octanamide], on jack bean urease [1], the IC50 came out at 31.16 ± 0.25 µM and the “% inhibition” value was 95.9%.

`NC(N)=S` [Thiourea, reference compound]: the Mode of inhibition entry on jack bean urease [2] is “Competitive”. At jack bean urease [2] (setting [3]), the “K m(app)” value is 2.18 mM. Moreover, at jack bean urease [2] (derived from Lineweaver–Burk and Dixon plots), the inhibitory constant (Ki) was 18.2 µM. In addition, the “% inhibition” value at jack bean urease [1] is given as 92.1%.

Regarding `CCCCCCCC(=O)NC(=S)Nc1ccccc1Sc1ccccc1` [Compound 3j, N-(2′-(Phenylthio)phenylcarbamothioyl) octanamide], on jack bean urease [1], the IC50 came to 39.1 ± 0.72 µM and the “% inhibition” value was 86.5%.

As for `CCCCCCCC(=O)NC(=S)Nc1cccc(C)c1C` [Compound 3k, N-(2′,3′-Dimethylphenylcarbamothioyl) octanamide], on jack bean urease [1], the IC50 was found to be 46.2 ± 0.78 µM and the “% inhibition” value is on record as 85.8%.

(Values after paper PMC8981555 (RSC Advances, 2022).)
